From patent US20240043435A1, “TYK-2 INHIBITOR” (BEIGENE, LTD., priority 2020, published 2024)
Where two headings read alike, the source gives them in different places.

Assays:
pSTAT5/GM-CSF = pSTAT5/GM-CSF cellular assay (JAK2 selectivity); format: cell-based
[1] = target: T1, JAK1-JH2 protein (aa 561-860, in-house) (Homo sapiens, UniProt P23458); test: JAK1-JH2 biochemical assay (HTRF probe displacement); format: binding
T1 construct: JAK1-JH2 protein (aa 561-860, in-house); made in house
Protocol: Assay B: JAK1-JH2 Biochemical Assay
Compounds disclosed herein were tested for blocking of JAK1-JH2 protein (aa 561-860, in-house) with its probe in an assay based on Homogeneous Time Resolved Fluorescence. Compound dilution is done according to the following protocol: (1) Prepare 500× compounds solution in DMSO from 500 uM by 5-fold dilution, total 10 doses were included; (2) Prepare 10× compounds solution in an assay buffer containing 20 mM HEPES, pH 7.5, 10 mM MgCl2, 0.005% BSA, 2 mM DTT, 0.015% Brij-35 by transferring 1 μl serial 500× stock solution into 49 μl assay buffer. 4 μL of 1.17 nM recombinant JAK1-JH2 protein was pre-incubated with 1 μl of 10× serial dilution of compounds at room temperature for 0.5 hour. […] The HTRF signals (ex337 nm, em620 nm/665 nm) were read on BMG PHERAstar FS instrument. The inhibition percentage of JAK1 interaction with its probe in presence of increasing concentrations of compounds was calculated based on the ratio of fluorescence at 615 nm to that at 665 nm. The IC50 for each compound was derived from fitting the data to the four-parameter logistic equation by Dotmatics.

[2] = tested on: JAK2, TYK2/p-STAT4 (Tyr693) activated by IL-12 in NK-92 cell line; test: IL-12-JAK2, TYK2/p-STAT4 (Tyr693) inhibition IC50 cellular assay; format: cell-based; conditions: for Selectivity fold (TYK2/JAK2): Cellular assay, pSTAT5/GM-CSF IC50 vs pSTAT4/IL-12 IC50; for IC50: NK92, Cellular assay, read-out: pSTAT4/IL-12 IC50
Summary of the method: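 p-STAT4 (Tyr693) in lysates was measured by AlphaLISA SureFire Ultra after a 30 min IL-12 challenge (40 ng/ml final) at 37° C. Overnight-starved, IL-2-free NK-92 cells had been pretreated 1 h with compound at 10000 to 0.61 nM (4-fold, 8 points). IC50 values came from four-parameter logistic fitting.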

[3] = target: T2, TYK2-JH2 (aa 575-869, in-house) protein (Homo sapiens, UniProt P29597); test: TYK2-JH2 biochemical assay (HTRF probe displacement); format: binding; conditions: for Selectivity fold (TYK2/JAK1): JAK1-JH2 IC50 vs TYK2-JH2 IC50; for fold less potent (orth vs meta methylsulfonyl; B15 vs B1, B14 vs B5): Tyk2 JH2 bio-chemical potency
T2 construct: TYK2-JH2 (aa 575-869, in-house) protein; made in house
Summary of the method: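 HTRF probe-displacement format: compound dilutions (10 points, 5-fold, from 500 uM in DMSO at 500×) were combined with 0.2 nM TYK2-JH2 protein for 0.5 h at room temperature in HEPES pH 7.5 buffer with MgCl2, BSA, DTT and Brij-35. Percent inhibition came from the 615/665 nm fluorescence ratio, fitted to a four-parameter logistic for IC50.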

[4] = Biochemical assay, read-out: TYK2-JH2 IC50
[5] = read-out: Tyk2 JH2 domain bio-chemical potency
[6] = pSTAT5/GM-CSF IC50 over pSTAT4/IL-12 IC50

T2 sequence (P29597 575-869): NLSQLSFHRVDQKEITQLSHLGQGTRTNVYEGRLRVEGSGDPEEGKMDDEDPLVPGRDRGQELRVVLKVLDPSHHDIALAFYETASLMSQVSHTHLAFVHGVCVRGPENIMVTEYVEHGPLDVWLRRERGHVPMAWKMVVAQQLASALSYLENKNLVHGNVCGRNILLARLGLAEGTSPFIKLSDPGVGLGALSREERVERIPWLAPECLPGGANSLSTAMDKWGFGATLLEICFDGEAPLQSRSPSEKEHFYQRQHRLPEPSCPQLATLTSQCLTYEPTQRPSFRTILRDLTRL
T1 sequence (P23458 561-860): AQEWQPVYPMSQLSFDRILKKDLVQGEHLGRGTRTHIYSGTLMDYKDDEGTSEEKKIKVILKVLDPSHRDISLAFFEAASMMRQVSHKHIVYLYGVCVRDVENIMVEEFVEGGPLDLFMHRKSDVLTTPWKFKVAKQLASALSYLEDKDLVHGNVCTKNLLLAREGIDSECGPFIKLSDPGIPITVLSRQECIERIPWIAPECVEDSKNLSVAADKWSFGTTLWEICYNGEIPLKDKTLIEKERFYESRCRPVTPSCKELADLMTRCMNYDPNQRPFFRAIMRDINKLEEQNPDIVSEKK

| Compound | IC50 (pSTAT5/GM-CSF) | IC50 [1] | IC50 [2] | Selectivity fold (TYK2/JAK1) ([3]; Biochemical assay) | IC50 [3, 4] | Selectivity fold (TYK2/JAK2) [2] | other results |
| --- | --- | --- | --- | --- | --- | --- | --- |
| CC(=O)Nc1cc(Nc2cccc(S(C)(=O)=O)c2)c(-c2cccnn2)cn1 [Example A1, N-(4-((3-(methylsulfonyl)phenyl)amino)-5-(pyridazin-3-yl)pyridin-2-yl)acetamide] | > 10000 nM | 15 nM | 79.5 nM | 288 fold | 0.052 nM | >125 fold |  |
| CC(=O)Nc1cc(Nc2cccc(S(C)(=O)=O)c2)c(C2CCCO2)cn1 (stereo not drawn) [Example A2, N-[4-[(3-methanesulfonylphenyl)amino]-5-(oxolan-2-yl)pyridin-2-yl]acetamide] |  | 828 nM |  | 159 fold | 5.2 nM |  |  |
| CC(=O)Nc1cc(Nc2cccc(S(C)(=O)=O)c2)c(-c2cnc(C)cn2)cn1 [Example A4, N-(5-(5-methylpyrazin-2-yl)-4-((3-(methylsulfonyl)phenyl)amino)pyridin-2-yl)acetamide] |  | 59 nM |  | 113 fold | 0.52 nM |  |  |
| CC(=O)Nc1cc(Nc2cccc(S(C)(=O)=O)c2)c(-c2cnccn2)cn1 [Example A5, N-(4-((3-(methylsulfonyl)phenyl)amino)-5-(pyrazin-2-yl)pyridin-2-yl)acetamide] |  | 59 nM |  | 120 fold | 0.49 nM |  |  |
| CC(=O)Nc1cc(Nc2cccc(S(C)(=O)=O)c2)c(-c2cc(C)nc(C)n2)cn1 [Example A6, N-(5-(2,6-dimethylpyrimidin-4-yl)-4-((3-(methylsulfonyl)phenyl)amino)pyridin-2-yl)acetamide] | > 10000 nM | 18 nM | 51 nM | 128 fold | 0.14 nM | >196 fold |  |
| CC(=O)Nc1cc(Nc2cccc(S(C)(=O)=O)c2)c(N2CCCC2=O)cn1 [Example A7, N-(4-((3-(methylsulfonyl)phenyl)amino)-5-(2-oxopyrrolidin-1-yl)pyridin-2-yl)acetamide] |  | > 10000 nM |  | >14 fold | 670 nM |  |  |
| CC(=O)Nc1cc(Nc2cccc(S(C)(=O)=O)c2)c(-c2ccccn2)cn1 [Example B1, N-(4′-((3-(methylsulfonyl)phenyl)amino)-[2,3′-bipyridin]-6′-yl)acetamide] | > 10000 nM | 7.4 nM | 9.89 nM | 194 fold |  | >1011 fold | IC50 [3, 5]: 0.038 nM |
| CC(=O)Nc1cc(Nc2ccccc2)c(-c2ccccn2)cn1 [Example B3, N-(4′-(phenylamino)-[2,3′-bipyridin]-6′-yl)acetamide] |  | 9 nM |  | 8.1 fold | 1.1 nM |  |  |
| CC(=O)Nc1cc(Nc2cccc(S(C)(=O)=O)n2)c(-c2ccccn2)cn1 [Example B5, N-(4′-((6-(methylsulfonyl)pyridin-2-yl)amino)-[2,3′-bipyridin]-6′-yl)acetamide] | > 10000 nM | 0.31 nM | 0.243 nM | 19 fold |  | >41152 fold | fold more potent than Example B1 in cellular assay [2]: 40 fold; fold more potent than Example B1 in bio-chemical assay [3]: 2 fold; IC50 [3, 5]: 0.016 nM |
| COc1cccc(Nc2cc(NC(C)=O)ncc2-c2ccccn2)c1 [Example B13, N-(4′-((3-methoxyphenyl)amino)-[2,3′-bipyridin]-6′-yl)acetamide] | > 10000 nM | 18 nM | 183 nM | 42 fold | 0.43 nM | >54 fold |  |
| CC(=O)Nc1cc(Nc2ncccc2S(C)(=O)=O)c(-c2ccccn2)cn1 [Example B14, N-(4′-((3-(methylsulfonyl)pyridin-2-yl)amino)-[2,3′-bipyridin]-6′-yl)acetamide] |  | 145 nM |  | 1 fold | 80 nM |  | fold less potent (orth vs meta methylsulfonyl; B15 vs B1, B14 vs B5) [3]: 5000 fold |
| CC(=O)Nc1cc(Nc2ccccc2S(C)(=O)=O)c(-c2ccccn2)cn1 [Example B15, N-(4′-((2-(methylsulfonyl)phenyl)amino)-[2,3′-bipyridin]-6′-yl)acetamide] |  | 234 nM |  | 1 fold | 117 nM |  | fold less potent (orth vs meta methylsulfonyl; B15 vs B1, B14 vs B5) [3]: 3079 fold |
| CS(=O)(=O)c1cccc(Nc2cc(N)ncc2-c2ccccn2)c1 [Example B19, N4′-(3-(methylsulfonyl)phenyl)-[2,3′-bipyridine]-4′,6′-diamine] |  | 257 nM |  | 14.2 fold | 18 nM |  |  |
| CS(=O)(=O)c1cccc(Nc2cc(NC(=O)C3CC3)ncc2-c2ccccn2)c1 [Example B20, N-(4′-((3-(methylsulfonyl)phenyl)amino)-[2,3′-bipyridin]-6′-yl)cyclopropanecarboxamide] |  | 76 nM |  | 50 fold | 1.5 nM |  | Tyk2 inhibition potency on replacing R methyl (Example B1) by cyclopropane ([3]; compared with Example B1): dramatically decreased |
| CC(=O)Nc1cc(Nc2cccc(S(C)(=O)=O)c2)c(-c2ccc(N3CCOCC3=O)cn2)cn1 [Example G1, N-(4′-((3-(methylsulfonyl)phenyl)amino)-5-(3-oxomorpholino)-[2,3′-bipyridin]-6′-yl)acetamide] | > 10000 nM | 4.9 nM | 14.4 nM |  | 0.026 nM |  | Selectivity fold (TYK2/JAK2) (pSTAT5/GM-CSF; pSTAT5/GM-CSF vs pSTAT4/IL-12): >694 fold; Selectivity fold (TYK2/JAK1) ([1]; JAK1-JH2 vs TYK2-JH2): 188 fold |

Now from value to compound, other results behind:

| IC50 (pSTAT5/GM-CSF) | IC50 [1] | IC50 [2] | Selectivity fold (TYK2/JAK1) ([3]; Biochemical assay) | IC50 [3, 4] | Compound | Selectivity fold (TYK2/JAK2) [2] | other results |
| --- | --- | --- | --- | --- | --- | --- | --- |
| > 10000 nM | 1.4 nM | 2.6 nM | 87.5 fold | 0.016 nM | CC(=O)Nc1cc(Nc2cccc(S(C)(=O)=O)c2)c(-c2ccc(C(C)(C)O)cn2)cn1 [Example H1, N-(5-(2-hydroxypropan-2-yl)-4′-((3-(methylsulfonyl)phenyl)amino)-[2,3′-bipyridin]-6′-yl)acetamide] | >3846 fold |  |
| 373 nM |  | 0.904 nM |  | 0.03 nM | COc1ccncc1-c1cc(Nc2cc(NC(C)=O)ncc2-c2ccc3c(n2)OCC(C)(C)O3)nc(S(C)(=O)=O)c1 [Example Q101, N-(5-(2,2-dimethyl-2,3-dihydro-[1,4]dioxino[2,3-b]pyridin-6-yl)-4-((4-methoxy-6′-(methylsulfonyl)-[3,4′-bipyridin]-2′-yl)amino)pyridin-2-yl)acetamide] |  | Selectivity fold (TYK2/JAK2) (pSTAT5/GM-CSF; [6]): 412 fold |
| > 10000 nM |  | 0.302 nM |  | 0.034 nM | CC(=O)Nc1cc(Nc2cc(-c3cnccc3C#N)cc(S(C)(=O)=O)n2)c(-c2ccc3c(n2)OCC(C)(C)O3)cn1 [Example Q115, N-(4-((4-cyano-6′-(methyslulfonyl)-[3,4′-bipyridin]-2′-yl)amino)-5-(2,2-dimethyl-2,3-dihydro-[1,4]dioxino[2,3-b]pyridin-6-yl)pyridin-2-yl)acetamide] |  | Selectivity fold (TYK2/JAK2) (pSTAT5/GM-CSF; [6]): >33112 fold |
| 1150 nM |  | 1.19 nM |  | 0.031 nM | CC(=O)Nc1cc(Nc2cc(-c3cscn3)cc(S(C)(=O)=O)n2)c(-c2ccc3c(n2)OCC(C)(C)O3)cn1 [Example Q119, N-(5-(2,2-dimethyl-2,3-dihydro-[1,4]dioxino[2,3-b]pyridin-6-yl)-4-((6-(methylsulfonyl)-4-(thiazol-4-yl)pyridin-2-yl)amino)pyridin-2-yl)acetamide] |  | Selectivity fold (TYK2/JAK2) (pSTAT5/GM-CSF; [6]): 965 fold |
| > 10000 nM |  | 2.18 nM |  | 0.041 nM | CC(=O)Nc1cc(Nc2cccc(S(C)(=O)=O)n2)c(C2=NC(C)(C)CS2)cn1 [Example R1, N-(5-(4,4-dimethyl-4,5-dihydrothiazol-2-yl)-4-((6-(methylsulfonyl)pyridin-2-yl)amino)pyridin-2-yl)acetamide] |  | Selectivity fold (TYK2/JAK2) (pSTAT5/GM-CSF; [6]): >4587 fold |
